Experimental data as given in patent publication US8911710B2, “Intravascular contrast agents” (Agency for Science, Technology and Research, priority 2008, dated 2014).

Test: Relaxivity measurement (T1 by inversion recovery spin echo in aqueous phantoms, Varian 9.4T MRI system)
Type: physicochemical
Conditions: 25° C., in H2O
Experimental: Relaxivity measurement and MRI were conducted on a Varian 9.4T MRI system (Palo Alto, Calif., USA). T1 was measured by inversion recovery spin echo in aqueous phantoms with concentrations 0.4, 0.2 0.1, 0.05, 0.025, 0.0125 and 0.00625 mM Gd. In vivo study was conducted on Wistar rats (male, weight 320-340 g) under 2% isoflurane anesthesia. CAs were injected (dosage: 0.04 mmol Gd/kg body weight) through tail vein. T1-weighted images were acquired every 6.4 s for 48 min with T1-weighted gradient echo sequence (TR/TE=50/3 ms, flip-angle=20 degree, resolution=[…], thickness=2 mm).

| Compound | relaxivity r1 |
| --- | --- |
| O=C([O-])CN(CCN(CC(=O)[O-])CC(=O)O)CCN(CC(=O)[O-])CC(=O)O.[Gd+3] [Gd-DTPA] | 4.1 mM⁻¹ s⁻¹ |
| O=C([O-])CN1CCN(CC(=O)[O-])CCN(CC(=O)O)CCN(CC(=O)[O-])CC1.[Gd+3] [Gd-DOTA] | 3.9 mM⁻¹ s⁻¹ |
